A short description of data set [1]: in vitro. Conditions: African green monkey.
A further data set deals with SARS-CoV-2. Kind of data set: microbe, parasite or virus in culture. Conditions: Severe acute respiratory syndrome coronavirus 2, A549, 48 h; read-out: IC50 for inhibition of SARS CoV-2 mediated cell killing. The format is cell-based.
Data set [2] relates to coronavirus USA_WA1/2020 SARS CoV-2. Kind of data set: SARS CoV-2 CPE assay for antiviral activity (Vero E6 host cells, Cell Titer-Glo). It is filed as cell-based. To be noted: Vero C1008, 10-point dose response, high concentration 15 μM, 72 hours, read-out: IC50 for inhibition of SARS CoV-2 mediated cell killing. (In ATP-based viability assays light output follows the ATP content of the culture.)

Data set [3] can be described thus: in vitro. To be noted: human.

One may read the IC50 as the point on the concentration scale where inhibition reaches its midpoint. Turning to `C[C@@H]1COCCN1c1cc(N2CCN(S(=O)(=O)Cc3ccc(F)cc3)CC2C(F)(F)F)[nH]c(=O)c1` (stereo partly shown) [Compound 3], the figures for the CC50 in “in vitro [1]” and in “in vitro [3]” were above 10 µM and 5160 µM, respectively. Also, the IC50 in the data set on SARS-CoV-2 was 0.039 µM; in data set [2], 0.224 µM.

`C[C@@H]1COCCN1c1cc(N2CCN(S(=O)(=O)c3cncc(F)c3)CC2C(F)(F)F)[nH]c(=O)c1` (stereo partly shown) [Compound 2]: the CC50 in “in vitro [1]” and in the data set “in vitro [3]” was above 10 µM each time. Moreover, the values for the IC50 (in the data set with SARS-CoV-2; in data set [2]) were 0.12 µM and 0.409 µM, respectively.

As to `C[C@@H]1COCCN1c1cc(N2CCN(S(=O)(=O)N3CCCC3)CC2C(F)(F)F)[nH]c(=O)c1` (stereo partly shown) [Compound 1], the CC50 is 29 µM in the data set “in vitro [1]” and 24 µM in the data set “in vitro [3]”. For the same compound, the IC50 is 0.16 µM in the data set on SARS-CoV-2 and 0.9 µM in data set [2].

As to `C[C@@H]1COCCN1c1cc(N2CCN(S(=O)(=O)N(C)C)CC2C(F)(F)F)[nH]c(=O)c1` (stereo partly shown) [Compound 4], the CC50 in the data set “in vitro [1]” and in the data set “in vitro [3]” was above 10 µM in each case. Moreover, the values for the IC50 (in the data set on SARS-CoV-2; in data set [2]) were 0.369 µM and 1.12 µM, respectively.
